# Patent publication US9828379B2 (priority 2013, dated 2017)
# How the values were obtained:
# Experiment in all cases: In vitro competitive activity-based protein profiling (Table 2, % inhibition at 1 μM)
# Type in all cases: biochemical
# ABHD6 = target: T1, ABHD6 (Mus musculus, UniProt Q8R2Y0); conditions: read-out: % Inhibition at 1 μM ABHD6
# T1 sequence (Q8R2Y0 1-336): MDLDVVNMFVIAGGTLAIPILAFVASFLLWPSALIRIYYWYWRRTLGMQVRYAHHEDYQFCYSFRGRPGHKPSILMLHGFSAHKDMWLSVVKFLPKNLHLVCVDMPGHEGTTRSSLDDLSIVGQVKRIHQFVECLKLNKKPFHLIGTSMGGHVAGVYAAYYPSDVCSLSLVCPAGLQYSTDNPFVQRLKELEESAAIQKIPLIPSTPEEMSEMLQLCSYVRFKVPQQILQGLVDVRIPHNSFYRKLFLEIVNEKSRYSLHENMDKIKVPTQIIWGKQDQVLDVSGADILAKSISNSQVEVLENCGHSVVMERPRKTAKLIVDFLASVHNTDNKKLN
# Protocol: (§1) After 30 min, FP—Rh (1.0 μL, 50 μM in DMSO) was added and the mixture was incubated for another 30 min at 37° C. Reactions were quenched with SDS loading buffer (50 μL-4×) and run on SDS-PAGE. Following gel imaging, serine hydrolase activity was determined by measuring fluorescent intensity of gel bands corresponding to MAGL, ABHD6 and FAAH using ImageJ 1.43 u software.
# (§2) hMAGL was expressed in HEK293T cells according to previously reported methods (see Niphakis, Long, and Blankman, J. L., et al. (2007) Chem. Biol. 14:1347-1356). Cell lysates were diluted with mock proteomes for use in competitive ABPP experiments.
# FAAH = target: T2, FAAH (Mus musculus, UniProt O08914); conditions: read-out: % Inhibition at 1 μM FAAH
# T2 sequence (O08914 1-579): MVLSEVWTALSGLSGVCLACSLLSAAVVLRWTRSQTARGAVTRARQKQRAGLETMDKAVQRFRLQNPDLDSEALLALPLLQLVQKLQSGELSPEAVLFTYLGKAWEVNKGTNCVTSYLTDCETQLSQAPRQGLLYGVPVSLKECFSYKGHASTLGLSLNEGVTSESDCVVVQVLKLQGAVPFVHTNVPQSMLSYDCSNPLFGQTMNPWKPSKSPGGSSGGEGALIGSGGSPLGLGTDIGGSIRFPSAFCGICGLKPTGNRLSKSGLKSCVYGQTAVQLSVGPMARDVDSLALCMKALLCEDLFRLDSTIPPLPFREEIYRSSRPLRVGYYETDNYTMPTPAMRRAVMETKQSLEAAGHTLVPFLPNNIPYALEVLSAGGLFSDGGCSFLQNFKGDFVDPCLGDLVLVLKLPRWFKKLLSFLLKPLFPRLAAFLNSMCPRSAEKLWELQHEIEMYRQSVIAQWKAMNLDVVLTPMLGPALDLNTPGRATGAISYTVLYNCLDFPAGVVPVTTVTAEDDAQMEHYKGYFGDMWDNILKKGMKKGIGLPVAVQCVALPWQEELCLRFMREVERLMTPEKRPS
# Protocol: as §1, §2
# MAGL = target: T3, MAGL (Mus musculus, UniProt O35678); conditions: read-out: % Inhibition at 1 μM MAGL
# T3 sequence (O35678 1-303): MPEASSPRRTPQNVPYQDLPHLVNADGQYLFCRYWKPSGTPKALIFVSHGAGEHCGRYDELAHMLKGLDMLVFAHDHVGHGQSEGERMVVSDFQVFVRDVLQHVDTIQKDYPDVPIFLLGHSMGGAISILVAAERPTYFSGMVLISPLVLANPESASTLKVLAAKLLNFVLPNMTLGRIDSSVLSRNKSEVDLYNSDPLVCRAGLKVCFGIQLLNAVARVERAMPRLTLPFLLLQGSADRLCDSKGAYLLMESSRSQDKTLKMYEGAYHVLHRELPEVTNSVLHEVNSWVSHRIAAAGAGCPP
# Protocol: After 30 min, FP—Rh (1.0 μL, 50 μM in DMSO) was added and the mixture was incubated for another 30 min at 37° C. Reactions were quenched with SDS loading buffer (50 μL-4×) and run on SDS-PAGE.
# Cell lysates were diluted with mock proteomes for use in competitive ABPP experiments.
Structure (SMILES),inhibition at 1 µM (ABHD6),inhibition at 1 µM (FAAH),inhibition at 1 µM (MAGL)
"Cc1c(CN2CC3CN(C(=O)ON4C(=O)CCC4=O)CC3C2)cccc1N1CCC(NS(C)(=O)=O)CC1 (stereo not drawn) [Example 140, 2,5-dioxopyrrolidin-1-yl 5-[[3-(4-methanesulfonamidopiperidin-1-yl)-2-methylphenyl]methyl]-octahydropyrrolo[3,4-c]pyrrole-2-carboxylate]",< 25%,< 25%,25 to 75%
"CC(C)n1cc(CN2CC3CN(C(=O)ON4C(=O)CCC4=O)CC3C2)c(C2CCN(S(C)(=O)=O)CC2)n1 (stereo not drawn) [Example 120, 2,5-Dioxopyrrolidin-1-yl 5-[[3-(1-methanesulfonylpiperidin-4-yl)-1-(propan-2-yl)-1H-pyrazol-4-yl]methyl]-octahydropyrrolo[3,4-c]pyrrole-2-carboxylate]",< 25%,< 25%,< 25%
"CCN1CCN(c2c(C)cccc2CN2CC3CN(C(=O)ON4C(=O)CCC4=O)CC3C2)CC1 (stereo not drawn) [Example 139, 2,5-dioxopyrrolidin-1-yl 5-[[2-(4-ethylpiperazin-1-yl)-3-methylphenyl]methyl]-octahydropyrrolo[3,4-c]pyrrole-2-carboxylate]",< 25%,< 25%,< 25%
"CC(C)n1cc(CN2CC3CN(C(=O)ON4C(=O)CCC4=O)CC3C2)c(-c2ccccc2)n1 (stereo not drawn) [Example 117, 2,5-Dioxopyrrolidin-1-yl 5-[[3-phenyl-1-(propan-2-yl)-1H-pyrazol-4-yl]methyl]-octahydropyrrolo[3,4-c]pyrrole-2-carboxylate]",25 to 75%,< 25%,25 to 75%
"CC(=O)N1CCC(c2nn(C)cc2CN2CC3CN(C(=O)ON4C(=O)CCC4=O)CC3C2)CC1 (stereo not drawn) [Example 116, 2,5-Dioxopyrrolidin-1-yl 5-[[3-(1-acetylpiperidin-4-yl)-1-methyl-1H-pyrazol-4-yl]methyl]-octahydropyrrolo[3,4-c]pyrrole-2-carboxylate]",< 25%,< 25%,< 25%
"O=C(ON1C(=O)CCC1=O)N1CC2CN(Cc3ccc(C(=O)N4CCCCC4)cc3Cl)CC2C1 (stereo not drawn) [Example 161, 2,5-dioxopyrrolidin-1-yl 5-([2-chloro-4-[(piperidin-1-yl)carbonyl]phenyl]methyl)-octahydropyrrolo[3,4-c]pyrrole-2-carboxylate]",25 to 75%,25 to 75%,25 to 75%
"CC1COCCN1c1cc(Cl)ccc1CN1CC2CN(C(=O)ON3C(=O)CCC3=O)CC2C1 (stereo not drawn) [Example 95, 2,5-Dioxopyrrolidin-1-yl 5-[[4-chloro-2-(3-methylmorpholin-4-yl)phenyl]methyl]-octahydropyrrolo[3,4-c]pyrrole-2-carboxylate]",< 25%,< 25%,25 to 75%
"CS(=O)(=O)N1CCN(c2cc(Cl)ccc2CN2CC3CN(C(=O)ON4C(=O)CCC4=O)CC3C2)CC1 (stereo not drawn) [Example 110, 2,5-Dioxopyrrolidin-1-yl 5-[[4-chloro-2-(4-methanesulfonylpiperazin-1-yl)phenyl]methyl]-octahydropyrrolo[3,4-c]pyrrole-2-carboxylate]",< 25%,< 25%,< 25%
"CC(=O)N1CCC(c2nn(C(C)C)cc2CN2CC3CN(C(=O)ON4C(=O)CCC4=O)CC3C2)CC1 (stereo not drawn) [Example 119, 2,5-Dioxopyrrolidin-1-yl 5-[[3-(1-acetylpiperidin-4-yl)-1-(propan-2-yl)-1H-pyrazol-4-yl]methyl]-octahydropyrrolo[3,4-c]pyrrole-2-carboxylate]",< 25%,< 25%,< 25%
"O=C(ON1C(=O)CCC1=O)N1CC2CN(Cc3ccc(Cl)cc3N3CCC4(CCNC4=O)CC3)CC2C1 (stereo not drawn) [Example 112, 2,5-Dioxopyrrolidin-1-yl 5-[(4-chloro-2-[1-oxo-2,8-diazaspiro[4.5]decan-8-yl]phenyl)methyl]-octahydropyrrolo[3,4-c]pyrrole-2-carboxylate]",< 25%,< 25%,25 to 75%
